Assay: UV absorption properties (λmax, molar extinction coefficient ε, efficiency E 1%, 1 cm)
Format: physicochemical
[1] = values in order of the λmax values
[2] = Table 7, values in order of the λmax values
[3] = Table 6A, N-isobutyl-C3-benzoyl compounds

UV λmax	ε (molar extinction coefficient) [1]	SMILES	also measured
316 nm	23556 M⁻¹ cm⁻¹	CC1(C)CCN(C(C)(C)C)C=C1C(=O)c1ccncc1 [Compound 169, (1-(tert-butyl)-4,4-dimethyl-1,4,5,6-tetrahydropyridin-3-yl)(pyridin-4-yl)methanone]	
334 nm	33786 M⁻¹ cm⁻¹	COc1ccc(N2C=C(C(=O)Cc3ccccc3)C(C)(C)CC2)cc1 [Compound 174, 1-(1-(4-methoxyphenyl)-4,4-dimethyl-1,4,5,6-tetrahydropyridin-3-yl)-2-phenylethanone]	
331 nm	68095 M⁻¹ cm⁻¹	CC1(C)CCN(c2ccc(C(C)(C)C)cc2)C=C1C(=O)Nc1ccc(NC(=O)C2=CN(c3ccc(C(C)(C)C)cc3)CCC2(C)C)cc1 [Compound 191, N,N′-(1,4-phenylene)bis(1-(4-(tert-butyl)phenyl)-4,4-dimethyl-1,4,5,6-tetrahydropyridine-3-carboxamide)]	
337 nm	42723 M⁻¹ cm⁻¹	CC1(C)CCN(c2ccc(C(C)(C)C)cc2)C=C1C(=O)C(F)(F)F [Compound 194, 1-(1-(4-(tert-butyl)phenyl)-4,4-dimethyl-1,4,5,6-tetrahydropyridin-3-yl)-2,2,2-trifluoroethanone]	
360 nm	23198 M⁻¹ cm⁻¹	CC1(C)CCN(C(C)(C)C)C=C1C(=O)/C=C/c1ccccc1 [Compound 155, (E)-1-(1-(tert-butyl)-4,4-dimethyl-1,4,5,6-tetrahydropyridin-3-yl)-3-phenylprop-2-en-1-one]	
339 nm	24235 M⁻¹ cm⁻¹	COc1ccc(N2C=C(C(=O)C(F)(F)F)C(C)(C)CC2)cc1 [Compound 195, 2,2,2-trifluoro-1-(1-(4-methoxyphenyl)-4,4-dimethyl-1,4,5,6-tetrahydropyridin-3-yl)ethanone]	
307 nm	54797 M⁻¹ cm⁻¹	CC1(C)CCN(C(C)(C)C)C=C1C(=O)CCCCCCCCC(=O)C1=CN(C(C)(C)C)CCC1(C)C [Compound 166, 1,10-bis(1-(tert-butyl)-4,4-dimethyl-1,4,5,6-tetrahydropyridin-3-yl)decane-1,10-dione]	ε value (unit inferred): > 54000 M⁻¹ cm⁻¹
285 nm		CC(C)CN1C=C(S(=O)(=O)c2ccccc2)C(C)(C)CC1 [Compound 72, 1-Isobutyl-4,4-dimethyl-5-(phenylsulfonyl)-1,2,3,4-tetrahydropyridine]	
328 nm	24907 M⁻¹ cm⁻¹	C=CC(=O)C1=CN(C(C)(C)C)CCC1(C)C [Compound 154, 1-(1-(tert-butyl)-4,4-dimethyl-1,4,5,6-tetrahydropyridin-3-yl)prop-2-en-1-one]	
337 nm	17793 M⁻¹ cm⁻¹	CC1(C)CCN(c2ccc(C(C)(C)C)cc2)C=C1C(=O)C(c1ccccc1)c1ccccc1 [Compound 204, 1-(1-(4-(tert-butyl)phenyl)-4,4-dimethyl-1,4,5,6-tetrahydropyridine-3-yl)-2,2-diphenylethanone]	ε value (unit not given): approximately 18000

Further lines, the compound ahead of its results:

SMILES	UV λmax	ε (molar extinction coefficient) [1]	also measured
CC(C)=CC(=O)C1=CN(CC(C)C)CCC1(C)C [drawing 107]			λmax (Table 7, unsaturated compounds): 314 nm; E (1%, 1 cm) [2]: 757; ε [2]: 19000 M⁻¹ cm⁻¹
C=C(C)CC(=O)C1=CN(CC(C)C)CCC1(C)C [Compound 27, 1-(1-isobutyl-4,4-dimethyl-1,4,5,6-tetrahydropyridin-3-yl)-3-methylbut-3-en-1-one]	306 nm	14500 M⁻¹ cm⁻¹	
COc1ccc(C(=O)C2=CN(CC(C)C)CCC2(C)C)cc1 [Compound 12, (1-isobutyl-4,4-dimethyl-1,4,5,6-tetrahydropyridin-3-yl) (4-methoxyphenyl)methanone]	319 nm		shift / increase in λmax (versus base enaminoketone or alkanoyl counterparts): approximately 11 nm
CCC(=O)C1=CN(c2ccccc2)CCC1(C)C [Compound 47, 1-(4,4-dimethyl-1-phenyl-1,4,5,6-tetrahydropyridin-3-yl)propan-1-one]	321 nm	23000 M⁻¹ cm⁻¹	
CC(C)CN1C=C(C(=O)c2ccc(Br)cc2)C(C)(C)CC1 [drawing 84]			E (1%, 1 cm) (Table 6A): 642; ε (Table 6A): 22500 M⁻¹ cm⁻¹; λmax [3]: 318 nm
COc1ccc(C(=O)C(CCCCCC(=O)C2=CN(CC(C)C)CCC2(C)C)C(=O)c2ccc(C(C)(C)C)cc2)cc1 (centres unmarked) [Compound 5]	306 nm		
C=CC(=O)C1=CN(c2ccc(OC)cc2)CCC1(C)C [Compound 53, 1-(1-(4-methoxyphenyl)-4,4-dimethyl-1,4,5,6-tetrahydropyridin-3-yl)prop-2-en-1-one]	350 nm	21500 M⁻¹ cm⁻¹	
CC1(C)C=CN(c2ccccc2)CC1 [Compound 46, 4,4-dimethyl-1-phenyl-1,2,3,4-tetrahydropyridine]	278 nm	22550 M⁻¹ cm⁻¹	
C=CCCC(=O)C1=CN(CC(C)C)CCC1(C)C [Compound 8, 1-(1-Isobutyl-4,4-dimethyl-1,4,5,6-tetrahydropyridin-3-yl)pent-4-en-1-one]	308 nm	35000 M⁻¹ cm⁻¹	
CC(C)CN1C=C(C(=O)c2ccccc2)C(C)(C)CC1 [drawing 87]			E (1%, 1 cm) (Table 6A): 701; ε (Table 6A): 19000 M⁻¹ cm⁻¹; λmax [3]: 316 nm
CC(C)CN1C=C(C(=O)c2ccc(-c3ccccc3)cc2)C(C)(C)CC1 [Compound 19, [1,1′-biphenyl]-4-yl(1-isobutyl-4,4-dimethyl-1,4,5,6-tetrahydropyridin-3-yl)methanone]	320 nm	18000 M⁻¹ cm⁻¹	
CC(C)CN1C=C(C(=O)c2cc(C(=O)C3=CN(CC(C)C)CCC3(C)C)cc(C(=O)C3=CN(CC(C)C)CCC3(C)C)c2)C(C)(C)CC1 [drawing 89]			E (1%, 1 cm) (Table 6A): 502; ε (Table 6A): 33000 M⁻¹ cm⁻¹; λmax [3]: 316 nm
C=CC(=O)C1=CN(c2ccccc2)CCC1(C)C [Compound 48, 1-(4,4-dimethyl-1-phenyl-1,4,5,6-tetrahydropyridin-3-yl)prop-2-en-1-one]	346 nm	21000 M⁻¹ cm⁻¹	
CC(C)CN1C=C(C(=O)c2ccc(C(=O)c3ccccc3)cc2)C(C)(C)CC1 [Compound 23, (4-benzoylphenyl)(1-isobutyl-4,4-dimethyl-1,4,5,6-tetrahydropyridin-3-yl)methanone]	295 nm	7500 M⁻¹ cm⁻¹	
CCC(=O)C1=CN(c2ccc(OC)cc2)CCC1(C)C [Compound 52, 1-(1-(4-methoxyphenyl)-4,4-dimethyl-1,4,5,6-tetrahydropyridin-3-yl)propan-1-one]	328 nm	23500 M⁻¹ cm⁻¹	
COc1ccc(N2C=C(C(=O)c3ccc(F)cc3)C(C)(C)CC2)cc1 [Compound 54, (4-fluorophenyl)(1-(4-methoxyphenyl)-4,4-dimethyl-1,4,5,6-tetrahydropyridin-3-yl)methanone]	341 nm	19350 M⁻¹ cm⁻¹	
CC(C)CN1C=C(C(=O)C(c2ccccc2)c2ccccc2)C(C)(C)CC1 [drawing 172]			E (1%, 1 cm) (Table 13A): 716; ε (Table 13A): 26000 M⁻¹ cm⁻¹; λmax (Table 13A, miscellaneous compounds): 314 nm

Reference: US10519111B2, “UV absorbing compounds, compositions comprising same and uses thereof” (CORAL SUNSCREEN PTY LTD, priority 2013, dated 2019)
